Laboratory results reported in patent publication US20250326738A1, “MALT1 Modulators and Uses Thereof” (Rarefied Biosciences, Inc., priority 2022, published 2025).

Columns and labels:
[1] = molecular target: T1, full length MALT1 (Homo sapiens, UniProt Q9UDY8); assay: MALT1 biochemical assay (fluorogenic peptide substrate cleavage); conditions: full length MALT1, 15 nM enzyme, 30 μM peptide substrate, 30 min pre-incubation, 60 min reaction; mean if tested more than once
T1 construct: measuring enzymatic activity of full length MALT1 at varying concentrations of compound
T1 sequence (Q9UDY8 1-824): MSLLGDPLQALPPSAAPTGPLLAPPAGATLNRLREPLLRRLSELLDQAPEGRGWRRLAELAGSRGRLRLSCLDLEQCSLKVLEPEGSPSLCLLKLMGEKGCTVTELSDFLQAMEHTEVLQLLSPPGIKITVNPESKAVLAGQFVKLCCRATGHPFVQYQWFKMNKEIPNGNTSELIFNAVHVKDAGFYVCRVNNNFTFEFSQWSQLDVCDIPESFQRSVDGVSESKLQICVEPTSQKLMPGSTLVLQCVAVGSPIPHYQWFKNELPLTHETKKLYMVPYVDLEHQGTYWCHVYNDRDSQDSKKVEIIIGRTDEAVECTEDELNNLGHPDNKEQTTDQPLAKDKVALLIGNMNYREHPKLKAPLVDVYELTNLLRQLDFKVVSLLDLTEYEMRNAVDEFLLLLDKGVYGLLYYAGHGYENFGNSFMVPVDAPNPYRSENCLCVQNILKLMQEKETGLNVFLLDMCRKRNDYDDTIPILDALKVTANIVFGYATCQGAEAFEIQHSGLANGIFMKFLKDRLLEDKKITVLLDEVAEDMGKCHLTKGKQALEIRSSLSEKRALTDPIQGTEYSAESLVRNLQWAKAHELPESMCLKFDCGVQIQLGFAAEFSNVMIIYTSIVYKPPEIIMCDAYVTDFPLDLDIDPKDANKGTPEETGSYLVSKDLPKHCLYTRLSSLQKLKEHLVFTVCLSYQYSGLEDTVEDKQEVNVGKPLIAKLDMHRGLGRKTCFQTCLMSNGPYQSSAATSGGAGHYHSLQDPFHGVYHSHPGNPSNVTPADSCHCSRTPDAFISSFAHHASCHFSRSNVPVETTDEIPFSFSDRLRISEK
Protocol: Inhibitor potency was evaluated by measuring enzymatic activity of full length MALT1 at varying concentrations of compound. The enzymatic assay consists of a single substrate reaction that monitors the release of a fluorescent dye upon cleavage of the peptide substrate. […] The assay buffer consists of 50 mM Hepes, pH 7.5, 0.8 M sodium citrate, 1 mM DTT, 0.004% tween-20, and 0.005% bovine serum albumin (BSA). […] The reaction was quenched after 60 minutes with the addition of iodoacetate at a final concentration of 10 mM. Total fluorescence was measured using an Envision (PerkinElmer) with fluorescence excitation at 485 nm and emission at 520 nm.
The reaction was initiated with the addition of 10 μL of peptide substrate. […] IC50 values were calculated by fitting the concentration-response curves to a four-parameter logistic equation in GraphPad Prism.
“N/A” indicates not tested.

[2] = test system: Jurkat IL-2; assay: Jurkat IL-2 assay (IL-2 inhibition by ELISA after anti-CD3/28/2 stimulation); format: cell-based; conditions: Homo sapiens; Jurkat clone E6.1, IL-2 in supernatant, 30 min pre-incubation, anti-CD3/28/2 stimulation 24 hours; mean if tested more than once
Protocol: Inhibition was determined in a cell-based assay using Jurkat (ATCC, clone E6.1), an immortalized T-cell line, exposed to a dose response of compound and assessed for viability, and IL-2 inhibition by ELISA. Cells were cultured in RPMI/10% FBS (Invitrogen 11875093, Atlanta Biologicals S12450H), maintained below 3E6/mL and only used in assays while below passage 25. Compounds were stamped by ECHO onto 384w plates (PerkinElmer Culturplate, 6007680). The cells were plated in fresh media on top of compound and incubated for 30 minutes before stimulation with soluble anti-CD3/28/2 (Stemcell, 10970) for 24 hours. Supernatant was collected and assessed for IL-2 (MSD, 384w, L21SA-1). To assess viability of cells treated with compound, cells were lysed with CTG reagent (Promega, G7570), and measured by luminometer. […] IC50s calculated using 4-parameter fit in GraphPad Prism.
“N/A” indicates not tested. For a compound that was tested in more than one experiment, the result shown represents the mean value.

IC50 [1]	IC50 [2]	Compound
< 100 nM	100 to 1000 nM	CC(O)c1c(Nc2ccc([C@H](N(C)C(=O)C3CCS(=O)(=O)CC3)C(F)(F)F)cc2)cnn1-c1cccnc1 (stereo partly shown) [Compound 1.24]
100 to 1000 nM	100 to 1000 nM	CO[C@@H](C)c1c(Nc2ccc([C@H](N(C)C(=O)C3CCN(C(C)=O)CC3)C(F)(F)F)cc2)cnn1-c1cccnc1 [Compound 1.34]
100 to 1000 nM	100 to 1000 nM	CO[C@@H](C)c1c(Nc2ccc([C@H](N(C)C(=O)C3CN(C(C)=O)C3)C(F)(F)F)cc2)cnn1-c1ccccc1 [Compound 1.38]
100 to 1000 nM	< 100 nM	CC(=O)N1CC(C(=O)N(C)[C@@H](c2ccc(Nc3cnn(-c4cccc(C#N)c4)c3C(F)(F)F)cc2)C(F)(F)F)C1 [Compound 1.35]
> 1000 nM	> 1000 nM	CN(C(=O)C1CCS(=O)(=O)CC1)[C@@H](c1ccc(Nc2cnn(CC(C)(C)C)c2C(F)(F)F)cc1)C(F)(F)F [Compound 1.12]
> 1000 nM	100 to 1000 nM	Cc1ccccc1-n1ncc(Nc2ccc([C@H](N(C)C(=O)C3CCS(=O)(=O)CC3)C(F)(F)F)cc2)c1C(F)(F)F [Compound 1.3]
< 100 nM	< 100 nM	CN(C(=O)C1CCS(=O)(=O)CC1)[C@@H](c1ccc(Nc2cnn(-c3cccnc3)c2C(F)(F)F)cc1)C(F)(F)F [Compound 1.13]
100 to 1000 nM	100 to 1000 nM	CC(=O)N1CC(C(=O)N(C)[C@@H](c2ccc(Nc3cnn(-c4cccc(C#N)c4)c3C3CC3)cc2)C(F)(F)F)C1 [Compound 1.39]
< 100 nM	100 to 1000 nM	CN(C(=O)C1CCS(=O)(=O)CC1)[C@@H](c1ccc(Nc2cnn(-c3ccnnc3)c2C(F)(F)F)cc1)C(F)(F)F [Compound 1.22]
> 1000 nM	> 1000 nM	COCC(C)n1ncc(Nc2ccc([C@H](N(C)C(=O)C3CCS(=O)(=O)CC3)C(F)(F)F)cc2)c1C(F)(F)F (stereo partly shown) [Compound 1.11]
100 to 1000 nM	100 to 1000 nM	CN(C(=O)C1CCS(=O)(=O)CC1)[C@@H](c1ccc(Nc2cnn(-c3ccccc3C#N)c2C(F)(F)F)cc1)C(F)(F)F [Compound 1.16]
< 100 nM	< 100 nM	CN(C(=O)[C@H]1CC[C@H](C(=O)O)CC1)[C@@H](c1ccc(Nc2cnn(-c3ccccc3)c2C(F)(F)F)cc1)C(F)(F)F [Compound 2.1, (1S,4r)-4-(methyl((S)-2,2,2-trifluoro-1-(4-((1-phenyl-5-(trifluoromethyl)-1H-pyrazol-4-yl)amino)phenyl)ethyl)carbamoyl)cyclohexane-1-carboxylic acid]
> 1000 nM	> 1000 nM	CN(C(=O)C1CCS(=O)(=O)CC1)[C@@H](c1ccc(Nc2cnn(C)c2C(F)(F)F)cc1)C(F)(F)F [Compound 1.1, (S)—N-methyl-N-(2,2,2-trifluoro-1-(4-((1-methyl-5-(trifluoromethyl)-1H-pyrazol-4-yl)amino)phenyl)ethyl)tetrahydro-2H-thiopyran-4-carboxamide 1,1-dioxide]
100 to 1000 nM	100 to 1000 nM	CO[C@@H](C)c1c(Nc2ccc([C@H](N(C)C(=O)C3CCN(C(C)=O)CC3)C(F)(F)F)cc2)cnn1-c1ccncc1 [Compound 1.33]
100 to 1000 nM	100 to 1000 nM	CN(C(=O)[C@H]1CC[C@H](C(=O)O)CC1)[C@@H](c1ccc(Nc2cnn(-c3ccncc3)c2C(F)(F)F)cc1)C(F)(F)F [Compound 2.2]
< 100 nM	< 100 nM	CC(=O)N1CC(C(=O)N(C)[C@@H](c2ccc(Nc3cnn(-c4ccccn4)c3C(F)(F)F)cc2)C(F)(F)F)C1 [Compound 1.37]
< 100 nM	< 100 nM	CC(=O)N1CC(C(=O)N(C)[C@@H](c2ccc(Nc3cnn(-c4cccnc4)c3C(F)(F)F)cc2)C(F)(F)F)C1 [Compound 1.36]
100 to 1000 nM	< 100 nM	CC(=O)N1CCC(C(=O)N(C)[C@@H](c2ccc(Nc3cnn(-c4ccccn4)c3C(F)(F)F)cc2)C(F)(F)F)CC1 [Compound 1.29]
> 1000 nM	> 1000 nM	CN(C(=O)C1CCS(=O)(=O)CC1)[C@@H](c1ccc(Nc2cnn(-c3ncccn3)c2C(F)(F)F)cc1)C(F)(F)F [Compound 1.18]
> 1000 nM	> 1000 nM	CN(C(=O)C1CCS(=O)(=O)CC1)[C@@H](c1ccc(Nc2cnn(C)c2-c2ccccc2)cc1)C(F)(F)F [Compound 1.4]
